Consider 23 compounds from ChEMBL document CHEMBL4428085, “Benzimidazole analogs as WTA biosynthesis inhibitors targeting methicillin resistant Staphylococcus aureus” (Bioorg Med Chem Lett, 2016).

Structures are written as SMILES. A value given as a limit tells only on which side of the number the result lay.

A short description of data set [1]: Inhibition of Staphylococcus aureus TarO assessed as reversal of targocil-mediated bacterial growth inhibition.
For data set [2], the system named is Staphylococcus aureus subsp. aureus COL. Put plainly: Inhibition of methicillin-resistant Staphylococcus aureus COL TarO assessed as concentration of compound for potentiation of action of imipenem-mediated bacterial growth inhibition by 95 %.
Data set [3] is described as follows: Inhibition of Staphylococcus aureus TarO.
A short description of data set [4]: Inhibition of Staphylococcus aureus TarO assessed as suppression of bacteriophageK-mediated cell lysis.
For data set [5], the system named is Staphylococcus aureus. Put plainly: Inhibition of methicillin-resistant Staphylococcus aureus TarO assessed as potentiation of action of imipenem-mediated bacterial growth inhibition by measuring percentage of compound MITC95<=25 uM for 25 isolates. Also noted: scale not given: the % may be the effect or the level left.
Data set [6] deals with Staphylococcus aureus. In words: Antibacterial activity against methicillin-resistant Staphylococcus aureus COL. It counts as functional.
For data set [7], the system named is Staphylococcus epidermidis. Put plainly: Inhibition of methicillin-resistant Staphylococcus epidermidis TarO assessed as potentiation of action of imipenem-mediated bacterial growth inhibition by measuring percentage of compound MITC95<=25 uM for 25 isolates. Also noted: scale not given: the % may be the effect or the level left.
Data set [8] is described as follows: AUC (0 to 24 hrs) in rat at 2 mg/kg, po. The note with it: in vivo. It counts as ADME, organism-based. Also on record: dose 2 mg/kg, time < 24 hr, route oral.
The nature of data set [9]: Half life in rat at 2 mg/kg, po. The note with it: in vivo. It counts as ADME, organism-based.
Data set [10] can be described thus: Oral bioavailability in rat at 2 mg/kg. In kind it is ADME, organism-based. The note with it: in vivo.

Broadly, the EC50 is the concentration at which the effect is half-maximal. The IC50 is the midpoint of a concentration-inhibition curve. In the case of `CCN(C(=O)CCn1c2cc(-c3ccc(CO)cc3)ccc2nc1[C@H]1CC[C@H](CC)CC1)C1CCCCC1`, the EC50 in data set [1] and in data set [4] was greater than 200 µM each time. In addition, in data set [2], the MITC95 was 4.7 µM. Further, half-maximal inhibition in data set [3] (IC50) was put at 300 nM.
For `CCN(C(=O)CCn1c2cc(-c3ccc(O)cc3)ccc2nc1[C@H]1CC[C@H](CC)CC1)C1CCCCC1`, the half-maximal effective concentration (EC50) in [1] is 1.8 µM; in data set [4], 29 µM. Besides, the MITC95 in data set [2] came out at 0.3 µM. Further, in data set [3], the IC50 was found to be 100 nM. In addition, in data set [5], the Activity is 56%.
Broadly, the AUC is the area under the concentration-time curve, a measure of exposure. As a reminder, the half-life is how long it takes for the measured level to halve. What is called bioavailability is dose-corrected exposure relative to a reference, in per cent. Regarding `CCN(C(=O)CCn1c2ccc(F)cc2nc1[C@H]1CC[C@H](CC)CC1)C1CCCCC1`, the 50% effective concentration (EC50) is 0.03 µM in [1] and 0.04 µM in [4]. The Activity in [6] was greater than 200 µM; in [5], 76%; in data set [7], 54%. For the same compound, the MITC95 in [2] was determined as 0.004 µM. Moreover, in data set [3], the IC50 stood at 40 nM. The compound also showed an exposure (AUC) in data set [8] of 0.9 µM·h. The compound also had a half-life in data set [9] of 300 min. The bioavailability in data set [10] stood at 15%.
On to `CCN(C(=O)CCn1c2cc(CO)ccc2nc1[C@H]1CC[C@H](CC)CC1)C1CCCCC1`, for which the EC50 stood at 7.1 µM in data set [1] and 5.4 µM in data set [4]. The MITC95 in [2] worked out at 0.5 µM. Also, the IC50 in data set [3] turned out to be 100 nM. Further, in data set [5], the Activity was found to be 68%.
With `CCN(C(=O)CCn1c(-c2ccc(OCC(F)(F)F)cc2)nc2ccccc21)C1CCCCC1`, the figures for the EC50 in data set [1] and in [4] were 1.1 µM and 1.2 µM, respectively. Moreover, the MITC95 in data set [2] is 0.3 µM. The compound also displayed an IC50 in data set [3] of 40 nM. Further, the Activity in [5] was found to be 68%; in [7], 4%.
Consider `CCN(C(=O)CCn1c2cc(-c3ccccc3)ccc2nc1[C@H]1CC[C@H](CC)CC1)C1CCCCC1`, for which the results for the half-maximal effective concentration (EC50) in data set [1] and in data set [4] were 0.03 µM and 0.2 µM, respectively. Besides, in data set [2], the MITC95 worked out at 0.2 µM. In addition, the half-maximal inhibitory concentration (IC50) in [3] turned out to be 4 nM. Besides, the Activity in [5] is 72%; in data set [7], 12%.
Turning to `CCN(C(=O)CCn1c(C2CCCN(C(=O)OC(C)(C)C)C2)nc2cc(F)ccc21)C1CCCCC1` (stereo not given), the EC50 in [1] was found to be 1.5 µM; in data set [4], 1.7 µM. Further, the MITC95 in [2] is 0.5 µM. This compound also showed a 50% inhibitory concentration (IC50) in [3] of 60 nM. Also, the Activity in data set [5] is 64%; in data set [7], 4%.
For `CC1(C)[C@@H]2CC[C@@]1(C)[C@@H](NC(=O)CCn1c(C3CCCCC3)nc3ccccc31)C2`, the 50% effective concentration (EC50) in data set [1] is 6 µM; in data set [4], 3 µM. This compound also returned an Activity in data set [6] greater than 200 µM. Further, the MITC95 in data set [2] was 3 µM. Besides, the IC50 in data set [3] is 400 nM.
Consider `CCNC(=O)N1CCCC(c2nc3cc(F)ccc3n2CCC(=O)N(CC)C2CCCCC2)C1` (stereo not given), for which the EC50 in data set [1] and in [4] was greater than 200 µM throughout. Further, the MITC95 in data set [2] was 100 µM. This compound returned a half-inhibitory concentration (IC50) in data set [3] of 28000 nM.
As for `CCN(C(=O)CCn1c2cc(F)ccc2nc1[C@H]1CC[C@H](CC)CC1)C1CCCCC1`, the EC50 in data set [1] stood at 0.7 µM; in [4], 0.8 µM. The MITC95 in [2] was found to be 0.1 µM. Also, half-maximal inhibition in [3] (IC50) required 20 nM. The Activity amounted to 68% in data set [5] and 42% in data set [7].
For the compound `CCN(C(=O)CCn1c(-c2ccc(-n3ccnn3)cc2)nc2ccccc21)C1CCCCC1`, the EC50 in data set [1] and in data set [4] was greater than 200 µM each time. Further, the MITC95 in data set [2] was found to be 19 µM. Also, in data set [3], the IC50 was 3800 nM.
Take `CCN(C(=O)CCn1c2cccc(F)c2nc1[C@H]1CC[C@H](CC)CC1)C1CCCCC1`: the EC50 in data set [1] was 0.4 µM; in [4], 0.8 µM. Moreover, the MITC95 in [2] came out at 0.1 µM. This compound showed an IC50 in data set [3] of 30 nM. For the same compound, the Activity was 68% in [5] and 58% in data set [7].
As to `CCN(C(=O)CCn1c2c(F)cccc2nc1[C@H]1CC[C@H](CC)CC1)C1CCCCC1`, the half-maximal effective concentration (EC50) stood at 0.4 µM in data set [1] and 0.9 µM in data set [4]. In addition, the MITC95 in [2] came to 0.8 µM. The compound further came in with an IC50 in data set [3] of 40 nM. Also, the Activity in data set [5] stood at 68%; in [7], 75%.
In data set [6], `CCN(C(=O)CCn1c2ccc(Br)cc2nc1[C@H]1CC[C@H](CC)CC1)C1CCCCC1` displayed an Activity greater than 200 µM. Besides, the IC50 in data set [3] is less than 400 nM.
Turning to `CCN(C(=O)CCn1c2cc(C(=O)O)ccc2nc1[C@H]1CC[C@H](CC)CC1)C1CCCCC1`, the EC50 in data set [1] and in [4] was greater than 200 µM in each case. Besides, the MITC95 in [2] turned out to be 200 µM. This compound came in with an IC50 in data set [3] of 147000 nM.
Consider `CCN(C(=O)CCn1c(C2CCCNC2)nc2cc(F)ccc21)C1CCCCC1` (stereo not given), for which the concentration for a half-maximal effect (EC50) in [1] and in [4] was greater than 200 µM each time. Besides, the MITC95 in data set [2] worked out at 200 µM. In addition, in data set [3], it took 16500 nM to reach half-maximal inhibition (IC50).
As for `CCN(C(=O)CCn1c2cc(CN(C)C)ccc2nc1[C@H]1CC[C@H](CC)CC1)C1CCCCC1`, the half-maximal effective concentration (EC50) in data set [1] and in data set [4] was greater than 200 µM each time. In [2], the MITC95 was found to be 25 µM. Besides, half-maximal inhibition in [3] (IC50) required 200000 nM.
As for `CCN(C(=O)CCn1c2cc(-c3cn[nH]c3)ccc2nc1[C@H]1CC[C@H](CC)CC1)C1CCCCC1`, the 50% effective concentration (EC50) was 24 µM in data set [1] and 100 µM in [4]. Also, the MITC95 in [2] is 6.3 µM. In [3], this compound had an IC50 of 200000 nM.
With `CCN(C(=O)CCn1c2cc(-c3cnn(C)c3)ccc2nc1[C@H]1CC[C@H](CC)CC1)C1CCCCC1`, the EC50 in data set [1] came out at 0.6 µM; in data set [4] it was 0.7 µM. Moreover, in data set [2], the MITC95 was found to be 0.2 µM. Besides, the IC50 in data set [3] is 50 nM. For the same compound, the Activity in data set [5] is 80%; in [7], 67%.
For `CCN(C(=O)CCn1c2cc(C(=O)NC3CC3)ccc2nc1[C@H]1CC[C@H](CC)CC1)C1CCCCC1`, the results for the EC50 in [1] and in [4] were 90 µM and 108 µM, respectively. Also, the MITC95 in [2] turned out to be 50 µM. Further, the half-maximal inhibitory concentration (IC50) in [3] worked out at 200000 nM.
For the compound `CCN(C(=O)CCn1c(C2CCCN(C(C)=O)C2)nc2cc(F)ccc21)C1CCCCC1` (stereo not given), the EC50 in data set [1] and in data set [4] was greater than 200 µM in each case. For the same compound, the MITC95 in [2] was determined as 100 µM. In data set [3], it took 48000 nM to reach half-maximal inhibition (IC50).
On to `CCN(C(=O)CCn1c(-c2ccc(C(=O)OC)cc2)nc2ccccc21)C1CCCCC1`, for which the figures for the concentration giving a half-maximal response (EC50) in [1] and in data set [4] were 4.3 µM and 6.9 µM, respectively. Also, the MITC95 in data set [2] is 1.2 µM. This compound had a half-inhibitory concentration (IC50) in [3] of 100 nM. In addition, the Activity in data set [5] is 64%.
On to `CCOC(=O)N1CCCC(c2nc3cc(F)ccc3n2CCC(=O)N(CC)C2CCCCC2)C1` (stereo not given), for which the EC50 in data set [1] and in [4] was 3.3 µM each time. Also, the MITC95 in [2] was determined as 0.4 µM. This compound yielded a 50% inhibitory concentration (IC50) in data set [3] of 100 nM. Besides, in data set [5], the Activity was 68%.
